Measurements as given in patent publication US12662491B2 (Redona Therapeutics, Inc., priority 2020, dated 2026).

Target: T1, Zcchc11 enzyme (Homo sapiens, UniProt Q5TAX3)
T1 construct: made in house; host or cells: HEK293 cells (Zcchc11); E. coli Rosetta II (LIN28A)
T1 sequence (Q5TAX3 212-1420): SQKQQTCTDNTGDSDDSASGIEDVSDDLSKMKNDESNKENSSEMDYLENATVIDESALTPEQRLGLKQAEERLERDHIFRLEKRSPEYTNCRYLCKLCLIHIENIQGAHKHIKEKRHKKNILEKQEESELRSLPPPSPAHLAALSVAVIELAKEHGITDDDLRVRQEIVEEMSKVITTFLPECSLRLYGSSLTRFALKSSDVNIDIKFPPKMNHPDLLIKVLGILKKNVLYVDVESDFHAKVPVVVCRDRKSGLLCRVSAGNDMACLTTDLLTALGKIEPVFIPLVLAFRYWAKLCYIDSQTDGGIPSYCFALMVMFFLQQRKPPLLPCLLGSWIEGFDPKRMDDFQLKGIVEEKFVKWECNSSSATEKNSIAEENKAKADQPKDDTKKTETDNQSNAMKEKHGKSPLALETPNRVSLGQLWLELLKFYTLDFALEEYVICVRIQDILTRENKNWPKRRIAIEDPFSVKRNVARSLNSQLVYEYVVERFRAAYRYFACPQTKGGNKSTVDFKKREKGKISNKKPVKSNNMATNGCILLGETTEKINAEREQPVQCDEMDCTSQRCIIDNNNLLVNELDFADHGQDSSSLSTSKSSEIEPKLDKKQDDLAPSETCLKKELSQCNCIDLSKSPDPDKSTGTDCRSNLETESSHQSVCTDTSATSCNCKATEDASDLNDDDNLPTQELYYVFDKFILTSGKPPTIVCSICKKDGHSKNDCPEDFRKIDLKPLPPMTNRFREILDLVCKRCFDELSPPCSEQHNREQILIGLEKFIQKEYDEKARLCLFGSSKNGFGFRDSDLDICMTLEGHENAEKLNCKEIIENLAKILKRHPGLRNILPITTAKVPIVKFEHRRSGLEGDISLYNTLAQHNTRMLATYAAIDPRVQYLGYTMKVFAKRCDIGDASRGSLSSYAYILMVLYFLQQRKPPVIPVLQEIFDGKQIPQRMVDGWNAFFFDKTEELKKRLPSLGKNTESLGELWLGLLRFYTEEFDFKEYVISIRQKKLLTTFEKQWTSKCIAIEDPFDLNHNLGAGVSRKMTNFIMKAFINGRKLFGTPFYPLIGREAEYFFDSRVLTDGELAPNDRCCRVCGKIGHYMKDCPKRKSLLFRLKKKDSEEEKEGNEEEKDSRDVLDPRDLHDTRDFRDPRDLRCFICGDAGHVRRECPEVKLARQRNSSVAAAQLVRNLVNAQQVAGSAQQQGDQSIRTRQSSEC
Assay: TUTase assay (Zcchc11 assay, Lin28a-dependent polyuridylation of pre-let-7)
Format: biochemical
Conditions: LIN28A 10 nM, Zcchc11 0.2 nM, 5′-fluorescein pre-let-7 miRNA 2 nM, UTP 5 uM, room temperature, 30 minutes pre-incubation; read-out: Potency Lin28a-dep Z11 IC50
Method in brief: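 Polyuridylation measured as fluorescein loss when a rhodamine-labelled A20 probe anneals to U-tails added to fluorescein pre-let-7 (2 nM). Reaction: truncated Zcchc11 0.2 nM, E. coli-made LIN28A 10 nM, UTP 5 uM, HEPES pH 7.3, room temperature. Initial rates fitted to four-parameter IC50.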

Row | IC50 | Compound
1 | 10000 to 50000 nM | COCC1CC(n2cc(C(=O)O)c(=O)c3cc(F)c(N4CCC[C@@H]4COc4ccccn4)cc32)C1 (stereo partly drawn) [Example 25, 6-fluoro-1-[3-(methoxymethyl)cyclobutyl]-4-oxo-7-[(2R)-2-[(pyridin-2-yloxy)methyl]pyrrolidin-1-yl]-1,4-dihydroquinoline-3-carboxylic acid]
2 | 1000 to 10000 nM | O=C(O)c1cn(-c2cncc(O)n2)c2cc(N3CCC[C@@H]3COc3ccccn3)c(F)cc2c1=O [Example 27, (R)-6-fluoro-1-(6-hydroxypyrazin-2-yl)-4-oxo-7-(2-((pyridin-2-yloxy)methyl)pyrrolidin-1-yl)-1,4-dihydroquinoline-3-carboxylic acid]

Same assay, conditions: Lin28a-dependent Zcchc11 (Z11) TUTase activity; read-out: Potency Lin28a-dep Z11 IC50

Row | IC50 | Compound
3 | ≤ 1000 nM | COc1ccc(F)c(OC[C@H]2C[C@H]3C[C@H]3N2c2cc3c(cc2Cl)c(=O)c(C(=O)O)cn3-c2ccc(N(C)C)nc2)n1 [Compound 266, 6-chloro-1-(6-(dimethyl-amino)pyridin-3-yl)-7-((1R,3R,5R)-3-(((3-fluoro-6-methoxy-pyridin-2-yl)oxy)methyl)-2-azabicyclo [3.1.0]hexan-2-yl)-4-oxo-1,4-dihydro-quinoline-3-carboxylic acid]
4 | 1000 to 10000 nM | CCc1ccccc1-n1cc(C(=O)O)c(=O)c2cc(F)c(N3CCC[C@@H]3COc3ccccn3)cc21 [Compound 161, (R)-1-(2-ethylphenyl)-6-fluoro-4-oxo-7-(2-((pyridin-2-yloxy)methyl)pyrrolidin-1-yl)-1,4-dihydro-quinoline-3-carboxylic acid]
5 | ≤ 1000 nM | COc1ccc(Cl)c(OC[C@H]2CC(c3cn[nH]c3)CN2c2cc3c(cc2F)c(=O)c(C(=O)O)cn3-c2ccc(N3CC(N(C)C)C3)nc2)n1 (stereo partly drawn) [Compound 352, 7-((2R)-2-(((3-chloro-6-methoxy-pyridin-2-yl)oxy)methyl)-4-(1H-pyrazol-4-yl)pyrrolidin-1-yl)-1-(6-(3-(dimethyl-amino)azetidin-1-yl)pyridin-3-yl)-6-fluoro-4-oxo-1,4-dihydro-quinoline-3-carboxylic acid compound with formic acid (1:1)]
6 | ≤ 1000 nM | Cn1cc(-n2cc(C(=O)O)c(=O)c3cc(C#N)c(N4CCC[C@H]4COc4ncccc4Cl)nc32)cn1 [Compound 281, (S)-7-(2-(((3-chloropyridin-2-yl)oxy)methyl)pyrrolidin-1-yl)-6-cyano-1-(1-methyl-1H-pyrazol-4-yl)-4-oxo-1,4-dihydro-1,8-naphthyridine-3-carboxylic acid]
7 | ≤ 1000 nM | O=C(O)c1cn(-c2cnn(C3CN(CCF)C3)c2)c2cc(N3CCC[C@@H]3COc3ncccc3Cl)c(Cl)cc2c1=O [Compound 244, 6-chloro-7-[(2R)-2-[[(3-chloropyridin-2-yl)oxy]methyl]pyrrolidin-1-yl]-1-[1-[1-(2-fluoroethyl)azetidin-3-yl]pyrazol-4-yl]-4-oxoquinoline-3-carboxylic acid]
8 | ≤ 1000 nM | Cc1cccnc1OC[C@H]1CCCN1c1nc2c(cc1F)c(=O)c(C(=O)O)cn2-c1ccc(O)cc1 [Compound 133, (R)-6-fluoro-1-(4-hydroxy-phenyl)-7-(2-(((3-methylpyridin-2-yl)oxy)methyl)pyrrolidin-1-yl)-4-oxo-1,4-dihydro-1,8-naphthyridine-3-carboxylic acid]

Same assay, conditions: Lin28a-dependent Zcchc11 (Z11) TUTase assay; read-out: Potency Lin28a-dep Z11 IC50

Row | IC50 | Compound
9 | ≤ 1000 nM | O=C(O)c1cn(-c2ccc(O)nc2)c2cc(N3CCC[C@@H]3COc3ncccc3Cl)c(Cl)cc2c1=O [Example 414, (R)-6-chloro-7-(2-(((3-chloropyridin-2-yl)oxy)methyl)pyrrolidin-1-yl)-1-(6-hydroxy-pyridin-3-yl)-4-oxo-1,4-dihydroquinoline-3-carboxylic acid]
10 | ≤ 1000 nM | CN(C)[C@H]1CCN(c2ccc(-n3cc(C(=O)O)c(=O)c4cc(Cl)c(N5CCC[C@@H]5COc5ncccc5Cl)cc43)cn2)C1 [Example 521, 6-chloro-7-((R)-2-(((3-chloropyridin-2-yl)oxy)methyl)pyrrolidin-1-yl)-1-(6-((S)-3-(dimethylamino)pyrrolidin-1-yl)pyridin-3-yl)-4-oxo-1,4-dihydroquinoline-3-carboxylic acid]
11 | 1000 to 10000 nM | O=C(O)c1cn(-c2cnccn2)c2cc(N3CCC[C@@H]3COc3ccccn3)c(F)cc2c1=O [Example 402, (R)-6-fluoro-4-oxo-1-(pyrazin-2-yl)-7-(2-((pyridin-2-yloxy)methyl)pyrrolidin-1-yl)-1,4-dihydroquinoline-3-carboxylic acid]
12 | ≤ 1000 nM | Cc1cc2c(=O)c(C(=O)O)cn(-c3ccc(N4CC(N(C)C)C4)nc3)c2cc1N1C[C@@H](F)C[C@@H]1COc1ncccc1Cl [Example 467, 7-((2R,4S)-2-(((3-chloropyridin-2-yl)oxy)methyl)-4-fluoropyrrolidin-1-yl)-1-(6-(3-(dimethylamino)azetidin-1-yl)pyridin-3-yl)-6-methyl-4-oxo-1,4-dihydroquinoline-3-carboxylic acid]
13 | 1000 to 10000 nM | CN1CCC(n2cc(C(=O)O)c(=O)c3cc(Cl)c(N4CCC[C@@H]4COc4ncccc4Cl)cc32)C1 (stereo partly drawn) [Example 461, 6-chloro-7-((R)-2-(((3-chloropyridin-2-yl)oxy)methyl)pyrrolidin-1-yl)-1-(1-methyl-pyrrolidin-3-yl)-4-oxo-1,4-dihydroquinoline-3-carboxylic acid]
14 | ≤ 1000 nM | O=C(O)c1cn(-c2cnc3cc[nH]c3n2)c2cc(N3CCC[C@@H]3COc3ncccc3Cl)c(Cl)cc2c1=O [Example 530, (R)-6-chloro-7-(2-(((3-chloropyridin-2-yl)oxy)methyl)pyrrolidin-1-yl)-4-oxo-1-(5H-pyrrolo[2,3-b]pyrazin-3-yl)-1,4-dihydroquinoline-3-carboxylic acid]
15 | ≤ 1000 nM | Cc1cccnc1OC[C@H]1CCCN1c1cc2c(cc1F)c(=O)c(C(=O)O)cn2C1CC(O)C1 (stereo partly drawn) [Example 362, (R)-6-fluoro-1-(3-hydroxycyclo-butyl)-7-(2-(((3-methylpyridin-2-yl)oxy)methyl)pyrrolidin-1-yl)-4-oxo-1,4-dihydroquinoline-3-carboxylic acid]
16 | ≤ 1000 nM | O=C(O)c1cn(-c2ccc(N3CCC3=O)nc2)c2nc(N3CCC[C@@H]3COc3ncccc3Cl)c(Cl)cc2c1=O [Example 531, (R)-6-chloro-7-(2-(((3-chloropyridin-2-yl)oxy)methyl)pyrrolidin-1-yl)-4-oxo-1-(6-(2-oxoazetidin-1-yl)pyridin-3-yl)-1,4-dihydro-1,8-naphthyridine-3-carboxylic acid]
17 | ≤ 1000 nM | O=C(O)c1cn(-c2ccc(O)c(F)c2)c2cc(N3CCC[C@@H]3COc3ccccn3)c(F)cc2c1=O [Example 385, (R)-6-fluoro-1-(3-fluoro-4-hydroxyphenyl)-4-oxo-7-(2-((pyridin-2-yloxy)methyl)pyrrolidin-1-yl)-1,4-dihydroquinoline-3-carboxylic acid]
18 | ≤ 1000 nM | O=C(O)c1cn(-c2ccc(N3CCNCC3)nc2)c2cc(N3CCC[C@@H]3COc3ncccc3Cl)c(Cl)cc2c1=O [Example 478, (R)-6-chloro-7-(2-(((3-chloropyridin-2-yl)oxy)methyl)pyrrolidin-1-yl)-4-oxo-1-(6-(piperazin-1-yl)pyridin-3-yl)-1,4-dihydroquinoline-3-carboxylic acid]
19 | ≤ 1000 nM | COc1ccc(Cl)c(OC[C@H]2CC(C)(O)CN2c2cc3c(cc2Cl)c(=O)c(C(=O)O)cn3-c2ccc(N3CC(N(C)C)C3)nc2)n1 (stereo partly drawn) [Example 643, 6-chloro-7-((2R)-2-(((3-chloro-6-methoxypyridin-2-yl)oxy)methyl)-4-hydroxy-4-methylpyrrolidin-1-yl)-1-(6-(3-(dimethylamino)azetidin-1-yl)pyridin-3-yl)-4-oxo-1,4-dihydroquinoline-3-carboxylic acid]
20 | 1000 to 10000 nM | CC(c1ccccc1)n1cc(C(=O)O)c(=O)c2cc(Cl)c(N3CCC[C@@H]3COc3ncccc3Cl)cc21 (stereo partly drawn) [Example 583, 6-chloro-7-((R)-2-(((3-chloropyridin-2-yl)oxy)methyl)pyrrolidin-1-yl)-4-oxo-1-(1-phentylethyl)-1,4-dihydroquinoline-3-carboxylic acid]
